PubChem BioAssay (NCI)
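Dose response: 5 concentrations. Exposure: 48 h. Format: 96-well plates. Endpoint: linear interpolation; highest concentration if not reached. Here, GI50 denotes the concentration required for 50% inhibition of growth. The concentration for full growth arrest is given as TGI.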

Experiments:
Experiment in all cases: DTP human tumour cell line panel, 48 h
[1] = system: 786-0 renal
[2] = system: A498 renal
[3] = system: A549 NSCLC
[4] = system: ACHN renal
[5] = system: BT-549 breast
[6] = system: CAKI-1 renal
[7] = system: CCRF-CEM leukemia
[8] = system: COLO 205 colon
[9] = system: DU-145 prostate
[10] = system: EKVX NSCLC
[11] = system: HCC-2998 colon
[12] = system: HCT-116 colon
[13] = system: HCT-15 colon
[14] = system: HL-60(TB) leukemia
[15] = system: HOP-62 NSCLC
[16] = system: HOP-92 NSCLC
[17] = system: HS 578T breast
[18] = system: HT29 colon
[19] = system: IGROV1 ovarian
[20] = system: K-562 leukemia
[21] = system: KM12 colon
[22] = system: LOX IMVI melanoma
[23] = system: M14 melanoma
[24] = system: MALME-3M melanoma
[25] = system: MCF7 breast
[26] = system: MDA-MB-231 breast
[27] = system: MDA-MB-435
[28] = system: MOLT-4 leukemia
[29] = system: NCI-H226 lung
[30] = system: NCI-H460 lung
[31] = system: NCI-H522 lung
[32] = system: NCI/ADR-RES ovarian
[33] = system: OVCAR-3 ovarian
[34] = system: OVCAR-4 ovarian
[35] = system: OVCAR-5 ovarian
[36] = system: OVCAR-8 ovarian
[37] = system: PC-3 prostate
[38] = system: RPMI-8226 leukemia
[39] = system: RXF 393 renal
[40] = system: SF-268 CNS
[41] = system: SF-295 CNS
[42] = system: SF-539 CNS
[43] = system: SK-MEL-2 melanoma
[44] = system: SK-MEL-28 melanoma
[45] = system: SK-MEL-5 melanoma
[46] = system: SK-OV-3 ovarian
[47] = system: SN12C renal
[48] = system: SNB-19 CNS
[49] = system: SNB-75 CNS
[50] = system: SW-620 colon
[51] = system: T-47D breast
[52] = system: TK-10 renal
[53] = system: U251 CNS
[54] = system: UACC-257 melanoma
[55] = system: UACC-62 melanoma
[56] = system: UO-31 renal

## N#Cc1c(N)nc(N2CCOCC2)c(C#N)c1-c1ccncc1
[1]
  GI50: 95.7 µM
  TGI: > 100 µM
[2]
  GI50: 18.6 µM
  TGI: 66.1 µM
[3]
  GI50: > 100 µM
  TGI: > 100 µM
[4]
  GI50: 40.7 µM
  TGI: > 100 µM
[5]
  GI50: 95.8 µM
  TGI: > 100 µM
[6]
  GI50: 49.1 µM
  TGI: > 100 µM
[7]
  GI50: > 100 µM
  TGI: > 100 µM
[8]
  GI50: > 100 µM
  TGI: > 100 µM
[9]
  GI50: > 100 µM
  TGI: > 100 µM
[10]
  GI50: 66.7 µM
  TGI: > 100 µM
[11]
  GI50: 13.3 µM
  TGI: 64.3 µM
[12]
  GI50: > 100 µM
  TGI: > 100 µM
[13]
  GI50: > 100 µM
  TGI: > 100 µM
[14]
  GI50: 62.9 µM
  TGI: > 100 µM
[15]
  GI50: 29.6 µM
  TGI: > 100 µM
[16]
  GI50: 31.7 µM
  TGI: > 100 µM
[17]
  GI50: 38.3 µM
  TGI: > 100 µM
[18]
  GI50: > 100 µM
  TGI: > 100 µM
[19]
  GI50: 12.3 µM
  TGI: 39.5 µM
[20]
  GI50: > 100 µM
  TGI: > 100 µM
[21]
  GI50: > 100 µM
  TGI: > 100 µM
[22]
  GI50: 80.1 µM
  TGI: > 100 µM
[23]
  GI50: > 100 µM
  TGI: > 100 µM
[24]
  GI50: 9.04 µM
  TGI: 98.1 µM
[25]
  GI50: 34.5 µM
  TGI: > 100 µM
[26]
  GI50: 21.6 µM
  TGI: > 100 µM
[27]
  GI50: > 100 µM
  TGI: > 100 µM
[28]
  GI50: > 100 µM
  TGI: > 100 µM
[29]
  GI50: 75.9 µM
  TGI: > 100 µM
[30]
  GI50: 98.1 µM
  TGI: > 100 µM
[31]
  GI50: 22.7 µM
  TGI: > 100 µM
[32]
  GI50: > 100 µM
  TGI: > 100 µM
[33]
  GI50: 36.4 µM
  TGI: > 100 µM
[34]
  GI50: > 100 µM
  TGI: > 100 µM
[35]
  GI50: 27 µM
  TGI: > 100 µM
[36]
  GI50: > 100 µM
  TGI: > 100 µM
[37]
  GI50: 32 µM
  TGI: > 100 µM
[38]
  GI50: > 100 µM
  TGI: > 100 µM
[39]
  GI50: > 100 µM
  TGI: > 100 µM
[40]
  GI50: > 100 µM
  TGI: > 100 µM
[41]
  GI50: 44.3 µM
  TGI: > 100 µM
[42]
  GI50: > 100 µM
  TGI: > 100 µM
[43]
  GI50: > 100 µM
  TGI: > 100 µM
[44]
  GI50: > 100 µM
  TGI: > 100 µM
[45]
  GI50: > 100 µM
  TGI: > 100 µM
[46]
  GI50: 37 µM
  TGI: > 100 µM
[47]
  GI50: 88.6 µM
  TGI: > 100 µM
[48]
  GI50: > 100 µM
  TGI: > 100 µM
[49]
  GI50: 41.4 µM
  TGI: > 100 µM
[50]
  GI50: > 100 µM
  TGI: > 100 µM
[51]
  GI50: 12.6 µM
  TGI: 51.7 µM
[52]
  GI50: 72.4 µM
  TGI: > 100 µM
[53]
  GI50: > 100 µM
  TGI: > 100 µM
[54]
  GI50: 46.6 µM
  TGI: > 100 µM
[55]
  GI50: 27 µM
  TGI: > 100 µM
[56]
  GI50: 31.3 µM
  TGI: > 100 µM
